How the values were obtained:
Assay type in all cases: in vivo
Kochia (Kochia scoparia) [1] = assay: Test A preemergence; settings: Bassia scoparia, pre-emergence, 240 h, 0 to 100 scale (0 no effect, 100 complete control), read-out: Plant response rating, Kochia
In short: (§1)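 In a loam soil and sand blend, planted seeds got a preemergence directed soil spray, and young plants at the one- to two-leaf stage, 2–10 cm high, got a postemergence application; ~10 d greenhouse hold; injury rated visually, 0 = none, 100 = complete control.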

[2] = test system: barnyardgrass (Echinochloa crus-galli); assay: Test A preemergence; settings: Echinochloa crus-galli, pre-emergence, 240 h, 0 to 100 scale (0 no effect, 100 complete control), read-out: Plant response rating, Barnyardgrass
In short: as §1

[3] = test system: giant foxtail (Setaria faberii); assay: Test A preemergence; settings: Setaria faberi, pre-emergence, 240 h, 0 to 100 scale (0 no effect, 100 complete control), read-out: Plant response rating, Foxtail, Giant
In short: as §1

[4] = test system: pigweed (Amaranthus retroflexus); assay: Test A preemergence; settings: Amaranthus retroflexus, pre-emergence, 240 h, 0 to 100 scale (0 no effect, 100 complete control), read-out: Plant response rating, Pigweed
[5] = test system: ragweed (common ragweed, Ambrosia elatior); assay: Test A preemergence; settings: Ambrosia artemisiifolia, pre-emergence, 240 h, 0 to 100 scale (0 no effect, 100 complete control), read-out: Plant response rating, Ragweed
In short: as §1

[6] = test system: ryegrass, Italian (Italian ryegrass, Lolium multiflorum); assay: Test A preemergence; settings: Lolium multiflorum, pre-emergence, 240 h, 0 to 100 scale (0 no effect, 100 complete control), read-out: Plant response rating, Ryegrass, Italian
In short: as §1

[7] = test system: Galium (catchweed bedstraw, Galium aparine); assay: Test A postemergence; settings: Galium, post-emergence, 240 h, Postemergence
In short: as §1

Kochia (Kochia scoparia) [8] = assay: Test A postemergence; settings: Bassia scoparia, post-emergence, 240 h, Postemergence
In short: as §1

[9] = test system: giant foxtail (Setaria faberii); assay: Test A postemergence; settings: Setaria faberi, post-emergence, 240 h, Postemergence
In short: as §1

[10] = test system: pigweed (Amaranthus retroflexus); assay: Test A postemergence; settings: Amaranthus retroflexus, post-emergence, 240 h, Postemergence
In short: as §1

[11] = test system: wheat (Triticum aestivum); assay: Test A postemergence; settings: Triticum aestivum, post-emergence, 240 h, Postemergence
In short: as §1

[12] = test system: barnyardgrass (Echinochloa crus-galli); assay: Test B flooded paddy test; settings: Echinochloa crus-galli, 360 h, Flood, 250 g ai/ha; visually evaluated after 13 to 15 d; read-out: Plant response rating, Barnyardgrass (0 to 100 scale where 0 is no effect and 100 is complete control)
In short: (§2)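 2-leaf plants; pots flooded 3 cm over soil; cpd added to paddy water; depth held; greenhouse 13–15 d; visual rating vs controls, 0 = no effect, 100 = complete control.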

[13] = test system: ducksalad (Heteranthera limosa); assay: Test B flooded paddy test; settings: Heteranthera limosa, 360 h, Flood, 250 g ai/ha; visually evaluated after 13 to 15 d; read-out: Plant response rating, Ducksalad (0 to 100 scale where 0 is no effect and 100 is complete control)
In short: as §2

rice (Oryra sativa) = assay: Test B flooded paddy test; settings: Oryza sativa, 360 h, Flood, 250 g ai/ha; visually evaluated after 13 to 15 d; read-out: Plant response rating, Rice (0 to 100 scale where 0 is no effect and 100 is complete control)
In short: as §2

[14] = test system: sedge, umbrella (small-flower umbrella sedge, Cyperus difformis); assay: Test B flooded paddy test; settings: Cyperus difformis, 360 h, Flood, 250 g ai/ha; visually evaluated after 13 to 15 d; read-out: Plant response rating, Sedge, Umbrella (0 to 100 scale where 0 is no effect and 100 is complete control)
In short: as §2

O=C1NC[C@H](c2cncs2)[C@H]1C(=O)Nc1ccccc1F [Compound 1335]
0%: pest or weed control at 500 g/ha (Kochia (Kochia scoparia) [1]; 500 g ai/ha, preemergence) | pest or weed control at 125 g/ha (Kochia (Kochia scoparia) [1]; Preemergence, 125 g ai/ha) | pest or weed control at 500 g/ha ([2]; 500 g ai/ha, preemergence) | pest or weed control at 125 g/ha ([2]; Preemergence, 125 g ai/ha) | pest or weed control at 500 g/ha ([3]; 500 g ai/ha, preemergence) | pest or weed control at 125 g/ha ([3]; Preemergence, 125 g ai/ha) | pest or weed control at 500 g/ha ([4]; 500 g ai/ha, preemergence) | pest or weed control at 125 g/ha ([4]; Preemergence, 125 g ai/ha) | pest or weed control at 500 g/ha ([5]; 500 g ai/ha, preemergence) | pest or weed control at 125 g/ha ([5]; Preemergence, 125 g ai/ha) | pest or weed control at 500 g/ha ([6]; 500 g ai/ha, preemergence) | pest or weed control at 125 g/ha ([6]; Preemergence, 125 g ai/ha) | pest or weed control at 125 g/ha ([7]; 125 g ai/ha, visual rating about 10 d after treatment, read-out: Galium plant response rating (0 to 100 scale)) | pest or weed control at 500 g/ha ([7]; 500 g ai/ha, visual injury, 0 to 100 scale (0 no effect, 100 complete control), approx. 10 d, read-out: Plant response rating, Galium) | pest or weed control at 125 g/ha (Kochia (Kochia scoparia) [8]; 125 g ai/ha, visual rating about 10 d after treatment, read-out: Kochia plant response rating (0 to 100 scale)) | pest or weed control at 500 g/ha (Kochia (Kochia scoparia) [8]; 500 g ai/ha, visual injury, 0 to 100 scale (0 no effect, 100 complete control), approx. 10 d, read-out: Plant response rating, Kochia) | pest or weed control at 125 g/ha ([9]; 125 g ai/ha, visual rating about 10 d after treatment, read-out: Foxtail, Giant plant response rating (0 to 100 scale)) | pest or weed control at 500 g/ha ([9]; 500 g ai/ha, visual injury, 0 to 100 scale (0 no effect, 100 complete control), approx. 10 d, read-out: Plant response rating, Foxtail, Giant) | pest or weed control at 125 g/ha ([10]; 125 g ai/ha, visual rating about 10 d after treatment, read-out: Pigweed plant response rating (0 to 100 scale)) | pest or weed control at 500 g/ha ([10]; 500 g ai/ha, visual injury, 0 to 100 scale (0 no effect, 100 complete control), approx. 10 d, read-out: Plant response rating, Pigweed) | plant injury at 125 g/ha ([11]; 125 g ai/ha, visual rating about 10 d after treatment, read-out: Wheat plant response rating (0 to 100 scale)) | plant injury at 500 g/ha ([11]; 500 g ai/ha, visual injury, 0 to 100 scale (0 no effect, 100 complete control), approx. 10 d, read-out: Plant response rating, Wheat) | pest or weed control at 250 g/ha [12] | pest or weed control at 250 g/ha [13] | pest or weed control at 250 g/ha (rice (Oryra sativa)) | pest or weed control at 250 g/ha [14]
